Results published in PMC7400437, “Synthesis and Evaluation of the Antibacterial Activities of 13-Substituted Berberine Derivatives” (Antibiotics, 2020).
Read-outs that look alike come from different tables or passages of the source.

Assays:
S. enterica = assay: MIC, antimicrobial activity assay; format: cell-based, Salmonella enterica (CIP 80.39); settings: Salmonella enterica; Table 4, Gram-negative
C. farmer = assay: MIC, antimicrobial activity assay; format: cell-based, Citrobacter farmeri (ATCC 51633); settings: Citrobacter farmeri; Table 4, Gram-negative
B. subtilis [1] = assay: Macromolecule synthesis inhibition assay by fluorescent microscopy (morphological changes); settings: 4 × MIC, 2 h, 37 °C; for Observed Morphology: DNA, B. subtilis: DAPI; for Known/Possible Target, B. subtilis: inferred from morphology
E. coli = assay: MIC, antimicrobial activity assay; format: cell-based, Escherichia coli (ATCC 8739); settings: Escherichia coli
[2] = tested on: P. aeruginosa (Quinolone-resistant); assay: MIC, antimicrobial activity assay; format: cell-based; settings: Pseudomonas aeruginosa, read-out: MIC P. aeruginosa (Quinolone-resistant)
V. alginolyticus = assay: Bacterial membrane permeabilization assay (propidium iodide); format: cell-based, Vibrio alginolyticus; settings: for membrane permeabilization at 4-times MIC, V. alginolyticus: 4-times their MIC; for maximal membrane permeabilization, V. alginolyticus: 120 min exposure to 100 µM, CTAB 300 µM = 100%
Procedure: (§1) Membrane permeabilization by berberine derivatives was evaluated using the cell-impermeable DNA/RNA probe propidium iodide as previously explained. Logarithmic growing bacterial suspensions were prepared from overnight bacterial suspension by 1 in 10 dilution. After 3 h incubation at 37 °C, 200 rpm, bacterial suspensions were centrifuged for 5 min at 3000 rpm. Cell pellets were then resuspended in sterile PBS at about 10^9 cells/mL. Propidium iodide (Sigma Aldrich) was then added to the suspension at a final concentration of 60 µM. 100 µL of this suspension were then transferred into 96-well black plates (Dominique Dutscher) and exposed to increasing concentrations of berberine’s derivative (from 0 to 100 µM, 1:2 dilution). […] All steps of the assay were performed in aerobic condition except for H. pylori which was done in microaerobic condition generated with GasPak unit (Sigma Aldrich). Bacteria were incubated at 37 °C and the kinetics of fluorescence variations (excitation at 530 nm and emission at 590 nm) were then recorded over time using a Synergy Mx microplate reader (Biotek). Cetyl trimethylammonium bromide (CTAB) at 300 µM was used as positive control giving 100% permeabilization. Results were expressed in % of permeabilization. All experiments were done in triplicate.

P. aeruginosa = assay: MIC, antimicrobial activity assay; format: cell-based, Pseudomonas aeruginosa (ATCC 9027); settings: Pseudomonas aeruginosa
B. subtilis [3] = assay: MIC, antimicrobial activity assay; format: cell-based, Bacillus subtilis (ATCC 6633); settings: Bacillus subtilis
H. pylori [4] = assay: MIC, antimicrobial activity assay; format: cell-based, Helicobacter pylori (ATCC 43504); settings: Helicobacter pylori; Table 4, Gram-negative; microaerobic
H. pylori [5] = assay: Bacterial membrane permeabilization assay (propidium iodide); format: cell-based, Helicobacter pylori; settings: for membrane permeabilization at 4-times MIC, H. pylori: 4-times their MIC; for maximal membrane permeabilization, H. pylori: 120 min exposure to 100 µM, CTAB 300 µM = 100%
Procedure: as §1

C. albicans = assay: MIC, antifungal activity assay; format: cell-based, Candida albicans (DSM 10697); settings: Candida albicans; Table 1 first screening; 35 °C, 24 h; read-out: Minimal Inhibitory Concentration (MIC) C. albicans
[6] = tested on: DNA extracted from S. aureus; assay: DNA fragmentation assay; settings: data not shown
C. difficile = assay: MIC, antimicrobial activity assay; format: cell-based, Clostridium difficile (DSM 1296); settings: Clostridioides difficile; Table 4, Gram-positive; anaerobic
[7] = tested on: S.aureus (Methicillin-resistant); assay: MIC, antimicrobial activity assay; format: cell-based; settings: Staphylococcus aureus, read-out: MIC S.aureus (Methicillin-resistant)
S. flexneri = assay: MIC, antimicrobial activity assay; format: cell-based, Shigella flexneri (ATCC 12022); settings: Shigella flexneri; Table 4, Gram-negative
[8] = tested on: E. faecalis (Vancomycin-resistant); assay: MIC, antimicrobial activity assay; format: cell-based, vancomycin-resistant Enterococcus faecalis (DSMZ 13591); settings: Enterococcus faecalis, read-out: MIC E. faecalis (Vancomycin-resistant)
M. smegmatis = assay: microbe, parasite or virus in culture; format: cell-based, Mycobacterium smegmatis (mc2155, ATCC 700084); settings: Mycolicibacterium smegmatis, 72 h, read-out: Minimal Inhibitory Concentration (MIC) M. smegmatis
A. baumannii = assay: MIC, antimicrobial activity assay; format: cell-based, Acinetobacter baumannii (CIP 110431); settings: Acinetobacter baumannii; Table 4, Gram-negative
A. gandavensis = assay: MIC, antimicrobial activity assay; format: cell-based, Arthrobacter gandavensis (DSM 2447); settings: Arthrobacter gandavensis; Table 4, Gram-positive
L. lactis = assay: MIC, antimicrobial activity assay; format: cell-based, Lactococcus lactis (DSM 20481); settings: Lactococcus lactis; Table 4, Gram-positive
[9] = Table 1 first screening, read-out: Minimal Inhibitory Concentration (MIC) E. coli
[10] = Table 4, Gram-negative, read-out: MIC E. coli
[11] = Table 1 first screening, read-out: Minimal Inhibitory Concentration (MIC) P. aeruginosa
[12] = Table 4, Gram-negative, read-out: MIC P. aeruginosa
[13] = Table 1 first screening, read-out: Minimal Inhibitory Concentration (MIC) B. subtilis
[14] = Table 4, Gram-positive, read-out: MIC B. subtilis

| SMILES | MIC (S. enterica) | MIC (C. farmer) | Observed Morphology: cell elongation/enlargement, B. subtilis (B. subtilis [1]) | Observed Morphology: cells connected, B. subtilis (B. subtilis [1]) | Observed Morphology: DNA, B. subtilis (B. subtilis [1]) | Known/Possible Target, B. subtilis (B. subtilis [1]) | MIC (E. coli; [9]) | MIC (E. coli; [10]) | MIC [2] | membrane permeabilization at 4-times MIC, V. alginolyticus (V. alginolyticus) | maximal membrane permeabilization, V. alginolyticus (V. alginolyticus) | MIC (P. aeruginosa; [11]) | MIC (P. aeruginosa; [12]) | MIC (B. subtilis [3]; [13]) | MIC (B. subtilis [3]; [14]) | MIC (H. pylori [4]) | membrane permeabilization at 4-times MIC, H. pylori (H. pylori [5]) | maximal membrane permeabilization, H. pylori (H. pylori [5]) | MIC (C. albicans) | DNA fragmentation, S. aureus DNA [6] | also measured |
| --- | --- | --- | --- | --- | --- | --- | --- | --- | --- | --- | --- | --- | --- | --- | --- | --- | --- | --- | --- | --- | --- |
| COc1ccc(C(=O)/C=C/c2ccc(Cc3c4[n+](cc5c(OC)c(OC)ccc35)CCc3cc5c(cc3-4)OCO5)cc2)c(O)c1 [Compound 25, (2E)-3-{4-[(Berberin-13-yl)methyl]phenyl}-1-(2-hydroxy-4-methoxyphenyl)prop-2-en-1-one] | > 100 µM | > 100 µM | 1–2.5 times compared to control | 2–8 cells connected | DNA condensed and cross the cells with dot like shape | RNA biosynthesis | > 100 µM | > 100 µM | > 100 µM | 20–40% | 80–100% | > 100 µM | > 100 µM | 6.25 µM | 6.25 µM | 3.12 µM | low to no membrane permeabilization | 50–60% | 12.5 µM | failed at causing the fragmentation of DNA | Observed Morphology: cell membrane, B. subtilis (B. subtilis [1]; FM4-64FX): Cell membrane thickening; MIC (C. difficile): 12.5 µM; MIC [7]: 6.25 µM; MIC (S. flexneri): > 100 µM; MIC [8]: 12.5 µM; MIC (M. smegmatis): 25 µM; MIC (A. baumannii): > 100 µM; MIC (A. gandavensis): 1.5 µM; MIC (L. lactis): 1.5 to 3.12 µM |
| COc1cc(C(=O)Cc2c3[n+](cc4c(OC)c(OC)ccc24)CCc2cc4c(cc2-3)OCO4)cc(OC)c1OC(=O)c1ccccc1 [Compound 16, 4-[2-(Berberin-13-yl)acetyl]-2,6-dimethoxyphenyl Benzoate] | > 100 µM | > 100 µM | 1.5–6 times compared to control | 2–4 cells connected | 2 morphologies of DNA: • - 2 condensed DNA in each cell • - Decondensed DNA spanning the cell | Cell wall biosynthesis | > 100 µM | > 100 µM | > 100 µM | 20–40% | 80–100% | > 100 µM | > 100 µM | 25 µM | 25 µM | 6.25 µM | low to no membrane permeabilization | 50–60% | > 100 µM | failed at causing the fragmentation of DNA | MIC (C. difficile): 100 µM; MIC [7]: 12.5 µM; MIC (S. flexneri): > 100 µM; MIC [8]: 50 µM; MIC (M. smegmatis): 50 µM; MIC (A. baumannii): > 100 µM; MIC (A. gandavensis): 100 µM; MIC (L. lactis): 6.25 to 12.5 µM |
